Test results reported in patent US9981940B2, “Aryl sulfide derivatives and aryl sulfoxide derivatives as acaricides and insecticides” (BAYER CROPSCIENCE AKTIENGESELLSCHAFT, priority 2013, dated 2018).

Experiments:
Boophilus microplus = Boophilus microplus injection test (BOOPMI Inj); format: in vivo; conditions: application rate of 20 μg/animal, assessed after 7 days by laying of fertile eggs
Description: Use Examples Boophilus microplus Injection Test (BOOPMI Inj) • Solvent: dimethyl sulphoxide
To prepare an appropriate active ingredient formulation, 10 mg of active ingredient are mixed with 0.5 ml of solvent and the concentrate is diluted with solvent to the desired concentration.
1 μl of the active ingredient solution is injected into the abdomen of 5 engorged adult female cattle ticks (Boophilus microplus). The animals are transferred into dishes and kept in a climate-controlled room.
The efficacy is assessed after 7 days by laying of fertile eggs. Eggs which are not visibly fertile are stored in a climate-controlled cabinet until the larvae hatch after about 42 days.
An efficacy of 100% means that none of the ticks has laid any fertile eggs; 0% means that all the eggs are fertile.

Tetranychus urticae = Tetranychus urticae spray test, OP-resistant (TETRUR); format: in vivo; conditions: application rate of 500 g/ha; after 6 days
Procedure, shortened: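 Bean leaf discs infested with all stages of an OP-resistant Tetranychus urticae strain sprayed with compound in acetone/DMF with alkylaryl polyglycol ether emulsifier, diluted in water. Efficacy in % scored after 6 days; 100% means all mites killed.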

[1] = log P by HPLC (OECD Guideline 117), method [a] acidic range; format: physicochemical; conditions: HPLC, method [a] acidic range
Description: (§1) The log P values were determined analogously to OECD Guideline 117 (EC Directive 92/69/EEC) by HPLC (high-performance liquid chromatography) using reversed-phase columns (C 18), by the following methods:
[a] The LC-MS determination in the acidic range is effected at pH 2.7 with 0.1% aqueous formic acid and acetonitrile (contains 0.1% formic acid) as eluents; linear gradient from 10% acetonitrile to 95% acetonitrile.

[2] = log P by HPLC (OECD Guideline 117), method [b] neutral range; format: physicochemical; conditions: HPLC, method [b] neutral range
Description: as §1
[b] The LC-MS determination in the neutral range is effected at pH 7.8 with 0.001 molar aqueous ammonium hydrogencarbonate solution and acetonitrile as eluents; linear gradient from 10% acetonitrile to 95% acetonitrile.

Row | Compound | logP[a] [1] | logP[b] [2] | efficacy (Boophilus microplus) [%] | efficacy (Tetranychus urticae) [%]
1 | Cc1cc(F)c(-n2nc(OC(C)C)n(C3CC3)c2=O)cc1SCC(F)(F)F [Example 101] | 3.93 | 3.85 | 100 | 100
2 | Cc1ccc(-n2nc(OCC(F)(F)F)n(C3CC3)c2=O)cc1SCC(F)(F)F [Example 92] | 4.29 | 4.20 | 100 | 100
3 | Cc1cc(F)c(-n2nc([S+]([O-])C(C)C)n(C)c2=O)cc1[S+]([O-])CC(F)(F)F (centres unmarked) [Example 245] | 1.94 | 1.90 | 100 | 100
4 | Cc1cc(F)c(-n2nc(Br)n(C3CC3)c2=O)cc1[S+]([O-])CC(F)(F)F (racemic) [Example 295] | 2.39 | 2.34 | 100 | 100
5 | CSc1nn(-c2cc([S+]([O-])CC(F)(F)F)c(C)cc2F)c(=O)n1C1CC1 (centres unmarked) [Example 257] | 2.45 | 2.40 | 100 | 100
6 | COc1nn(-c2cc([S+]([O-])CC(F)(F)F)c(C)cc2C)c(=O)n1C1CC1 (centres unmarked) [Example 119] | 2.21 | 2.17 | 100 | 90
7 | Cc1cc(F)c(-n2nc([S+](C)[O-])n(C3CC3)c2=O)cc1[S+]([O-])CC(F)(F)F (centres unmarked) [Example 231] | 1.61 | 1.58 | 100 | 100
8 | COCc1nn(-c2cc([S+]([O-])CC(F)(F)F)c(C)cc2F)c(=O)n1C1CC1 (centres unmarked) [Example 45] | 1.99 | 1.96 | 100 | 100
9 | Cc1cc(F)c(-n2nc(NC(C)C)n(N)c2=O)cc1SCC(F)(F)F [Example 224] | 2.74 | 2.71 | – | 90
10 | CCn1c(OC)nn(-c2cc(SCC(F)(F)F)c(C)cc2F)c1=O [Example 180] | 3.16 | 3.10 | – | 100
11 | COC1=CC(=O)N(c2ccc(C)c(SCC(F)(F)F)c2)C1 [Example 316] | 2.98 | 2.95 | – | 90
12 | CCCSc1nn(-c2cc(SCC(F)(F)F)c(C)cc2F)c(=O)n1C1CC1 [Example 265] | 4.41 | 4.32 | – | 100
13 | COC1=CC(=O)N(c2cc([S+]([O-])CC(F)(F)F)c(Cl)cc2Cl)C1 (racemic) [Example 314] | 2.24 | 2.23 | – | 100

Second part, led by results:

Row | logP[a] [1] | logP[b] [2] | Compound | efficacy (Boophilus microplus) [%] | efficacy (Tetranychus urticae) [%]
14 | 3.06 | 2.97 | Cc1cc(Cl)c([S+]([O-])CC(F)(F)F)cc1-n1nc(OCC(F)(F)F)n(C2CC2)c1=O (racemic) [Example 384] | 100 | 100
15 | 2.82 | 2.78 | CCn1c(OCC(F)(F)F)nn(-c2cc([S+]([O-])CC(F)(F)F)c(C)cc2F)c1=O (centres unmarked) [Example 406] | 100 | 90
16 | 3.50 | 3.47 | COc1nn(-c2cc(SCC(F)(F)F)c(C)cc2F)c(=O)n1CC(F)(F)F [Example 393] | 100 | 100
17 | 2.80 | 2.74 | COc1cc(F)c(-n2nc(OCC(F)(F)F)n(C3CC3)c2=O)cc1[S+]([O-])CC(F)(F)F (racemic) [Example 385] | 100 | –
18 | 4.92 | 4.85 | Cc1cc(Cl)c(-n2nc(OCC(C)(C)C)n(C3CC3)c2=O)cc1SCC(F)(F)F [Example 396] | – | 100
19 | 4.00 | 3.94 | CC=Cc1nn(-c2cc(SCC(F)(F)F)c(C)cc2F)c(=S)n1C1CC1 [Example 501] | – | 90
